# Experimental data as given in US20030166601A1, “Novel colloid synthetic vectors for gene therapy” (priority 1999, published 2003).
# How the values were obtained:
# [1] = Particle size of substituted aminoethanol-DNA complexes; assay type: physicochemical
# From the text: The component streams intersect in the mixer, whereby shearing and mixing of the DNA and polymer are induced, whereby particles of a complex of DNA and polymer are formed. The resulting preparations may be tested for mean particle size in nanometers and distribution through dynamic light scattering using, for example, a Coulter N4 Plus Submicron Particle Sizer (Coulter Corporation, Miami, Fla.). Mean particle sizes and standard deviaitons can be determined by the unimodal and Size Distribution Processing (SDP), or “intensity” methods.
# In the above methods, a laser is directed through a preparation of the particles. Dynamic light scattering is measured as a result of the Brownian motion of the particles. The dynamic light scattering-which is measured then is correlated-to particle size. In the unimodal method, the size distribution is determined by placing the sizes of the particles on a Gaussian curve. In the SDP method, size distribution is determined by a FORTRAN program called CONTIN. Such methods also are described further in the Coulter N4 Plus Submicron Particle Sizer Reference Manual (November 1995).
# (§1) Substituted aminoethanols lacking long chain hydrocarbon (aliphatic) substitutients were used to compact plasmid DNA into a colloidal dispersion in water. The size and zeta potential of the colloidal dispersions prepared were determined at different charge ratios for added cation (amine) to anion (DNA phosphate) and are shown in Table 1 and FIG. 4. The colloidal dispersions prepared permit compaction of the DNA into core complexes that are suitable for the invention.
# [2] = Zeta potential of substituted aminoethanol-DNA complexes; assay type: physicochemical; conditions: in mV (unit assumed)
# Protocol: as §1
# CHO (Sst2) cells = test: Transfection of CHO (Sst2) cells with peptide ligand complexes, luciferase; assay type: cell-based; conditions: polylysine core complexes; FIG. 26
# From the text: K14RGD peptide containing the amino acid sequence: KKK KKK KKK KKK KKS CRG DC (SEQ ID NO:5) with at least 90% purity was synthesized at Alpha Diagnostic International (San Antonio, Tex.). Peptide K14SMT contains the amino acid sequence: KKK KKK KKK KKK KKA d-FCY d-WKT CT (SEQ ID NO:6), and peptide K14MST contains the amino acid sequence KKK KKK KKK KKK KKA TDC RGE CF (SEQ ID NO:7). Both SMT and MST peptides were synthesized at Genemed Synthesis Inc (CA, South San Francisco) and oxidized to make circularized peptide. The peptide was purified to 90% purity by the provider. CHO (Sst+) cell line was obtained from Novartis Oncology (Dr. Friedrich Raulf). The cell line was selected to stable express human somatostatin receptor Sst2.
# 10000 CHO (Sst2) cells were cultured in a serum-containing medium with 0.4 mg/ml G418 for 12 hr before transfection in each well of a 96 well plate. The medium was changed to a serum free medium before transfection. Peptide was added to the cell at indicated amounts from 1 ug to 10 ug/well and incubated for 30 min before 0.5 ug pCIluc2 was added to the same medium to transfect the cells. Lipofectin at 4 ul was used as the control.
# At 24 hr, luciferase activity was measured with Promega luciferase assay kit according to the recommended procedure.
# cultured cells = test: Transfection of cultured cells, luciferase activity; assay type: cell-based
# From the text: The gene delivery ability of substituted aminoethanols with long chain hydrocarbon (aliphatic) substitutients was studied by transfection of cultured cells and then in vivo by intravenous injection (Table 2 and 3). The substituted aminoethanols have two hydrophilic polar heads connected with one hydrophobic body, which was named bihead lipids. Bihead lipids are proposed to form a monolayer membrane.
# CD-1 mice = test: Luciferase expression in organs after intravenous injection of pCILuc complexes; assay type: in vivo; conditions: for Luciferase RLU/20 ul lysate heart / Luciferase RLU/20 ul lysate kidney / Luciferase RLU/20 ul lysate liver / Luciferase RLU/20 ul lysate lung / Luciferase RLU/20 ul lysate spleen: 40 μg pCILuc i.v., 5 h
# Protocol: Substituted aminoethanols (cationic compounds) were prepared as described in Examples 1-34. Their gene delivery ability was studied in vivo by intravenous injection (Table 1 and 2) using a standard method. The preparations were administered via tail vein injection to mice and gene expression determined after 5 hours. Female CD-1 mice, 13-15 g, were purchased from Charles River Inc. Forty microgram of pCILuc complexed with GC lipids or GC lipid:Chol dispersion as indicated weight ratios. After 5 h, mice were sacrificed and organs were collected. Organs were homogenized in 0.5 ml of lysis buffer and 20 μl of supernatant was used for luciferase assay. Luciferase activity was represented as a mean of relative light unit (RLU) of four mice. The lipids were either used alone or combined with cholesterol and complexed with a luciferase reporter gene plasmid by a standard procedure at a range of weight and charge ratios. For the in vivo screen, 40 μg of pCILuc was complexed with the formulation and injected into the mice.
# All compounds were evaluated for in vivo activity. Two critical factors were examined, formulation with or without cholesterol and the ratio of cationic lipid to DNA. Cholesterol was tested at 1:1 mole ratio of lipid:chol. The studies were performed with a dose of 40 μg of pCILuc complexed with cationic lipid or lipid: Chol (1:1 mole ratio) injected i.v. into CD-1 mice and then luciferase activity in different organs determined 5 h later. The first evaluation included all of 14 GC-lipids at weight ratios of 2 and 10 (GC lipid to DNA). It was performed by four separated experiments. Each time cationic liposome DOTAP:Chol was used as a standard control.
# Measurements were repeated with lipids GC-030, GC-034 and GC-029 at wider weight ratios than the first experiment. Luciferase activity is represented as a mean of relative light unit (RLU) of four mice. WR means weight ratio of GC lipids to DNA. The transfection activity was represented by luciferase activity RLU/organ. […] The transfection activity increased with the increased weight ratio (GC lipids to DNA). Inclusion of cholesterol can change the biodistribution of gene expression in the different organs examined. […] However this function of cholesterol was not seen with GC-034.
compound,measurement,setting,value
C(CNCCC1CCCCN1)CNCCC1CCCCN1 (stereo not drawn) [CGP 61670A],Particle Size,[1]; charge ratio (+/−) 1.0,77.6 nm
same,Particle Size,[1]; charge ratio (+/−) 1.5,192.4 nm
same,Particle Size,[1]; charge ratio (+/−) 2.0,293.3 nm
same,Particle Size,[1]; charge ratio (+/−) 3.0,3946.4 nm
same,Particle Size,[1]; charge ratio (+/−) 4.0,4304.7 nm
same,Zeta Potential,[2]; charge ratio (+/−) 0.5,−17.6
same,Zeta Potential,[2]; charge ratio (+/−) 1.0,−15.4
same,Zeta Potential,[2]; charge ratio (+/−) 1.5,−9.1
same,Zeta Potential,[2]; charge ratio (+/−) 2.0,−8.71
same,Zeta Potential,[2]; charge ratio (+/−) 3.0,−6.01
same,Zeta Potential,[2]; charge ratio (+/−) 4.0,−5.52
KKK KKK KKK KKK KKA d-FCY d-WKT CT [SMT],"expression, effect of peptide ligand",CHO (Sst2) cells,increased expression
KKK KKK KKK KKK KKA TDC RGE CF [MST],"expression, effect of peptide ligand",CHO (Sst2) cells,not observed
CCN(CCCNCCCNCN(CC)C(=O)CN)C(=O)CN [CGP 61750A],Particle Size,[1]; charge ratio (+/−) 0.5,176.7 nm
same,Particle Size,[1]; charge ratio (+/−) 1.0,77.6 nm
same,Particle Size,[1]; charge ratio (+/−) 1.5,90.3 nm
same,Particle Size,[1]; charge ratio (+/−) 2.0,206.8 nm
same,Particle Size,[1]; charge ratio (+/−) 3.0,1941.8 nm
same,Particle Size,[1]; charge ratio (+/−) 4.0,2526.8 nm
same,Zeta Potential,[2]; charge ratio (+/−) 0.5,−47.3
same,Zeta Potential,[2]; charge ratio (+/−) 1.0,−30
same,Zeta Potential,[2]; charge ratio (+/−) 1.5,−25
same,Zeta Potential,[2]; charge ratio (+/−) 2.0,−17.1
same,Zeta Potential,[2]; charge ratio (+/−) 3.0,−11.7
same,Zeta Potential,[2]; charge ratio (+/−) 4.0,−9.78
CCCCCCCCCCCCCCC(O)CN(CCCN)CCCCCCCCCCCCCN(CCCN)CC(O)CCCCCCCCCCCCCC (stereo not drawn) [CGP44015A],Luciferase activity Ave. RLU × 10000/well FBS(+),cultured cells; charge ratio (+/−) 0.5,130 RLU × 10000/well
same,Luciferase activity Ave. RLU × 10000/well FBS(−),cultured cells; charge ratio (+/−) 0.5,159 RLU × 10000/well
same,Luciferase activity Ave. RLU × 10000/well FBS(+),cultured cells; charge ratio (+/−) 1,"3,373 RLU × 10000/well"
same,Luciferase activity Ave. RLU × 10000/well FBS(−),cultured cells; charge ratio (+/−) 1,"3,252 RLU × 10000/well"
same,Luciferase activity Ave. RLU × 10000/well FBS(+),cultured cells; charge ratio (+/−) 2,"17,315 RLU × 10000/well"
same,Luciferase activity Ave. RLU × 10000/well FBS(−),cultured cells; charge ratio (+/−) 2,"17,063 RLU × 10000/well"
same,Luciferase activity Ave. RLU × 10000/well FBS(+),cultured cells; charge ratio (+/−) 4,"25,732 RLU × 10000/well"
same,Luciferase activity Ave. RLU × 10000/well FBS(−),cultured cells; charge ratio (+/−) 4,"24,484 RLU × 10000/well"
same,Luciferase activity Ave. RLU × 10000/well FBS(+),cultured cells; charge ratio (+/−) 6,"27,844 RLU × 10000/well"
same,Luciferase activity Ave. RLU × 10000/well FBS(−),cultured cells; charge ratio (+/−) 6,"24,089 RLU × 10000/well"
same,Luciferase activity Ave. RLU × 10000/well FBS(+),cultured cells; charge ratio (+/−) 8,"27,298 RLU × 10000/well"
same,Luciferase activity Ave. RLU × 10000/well FBS(−),cultured cells; charge ratio (+/−) 8,"24,150 RLU × 10000/well"
same,Luciferase RLU/20 ul lysate heart,CD-1 mice; CR 0.5,74 RLU/20 ul lysate
same,Luciferase RLU/20 ul lysate kidney,CD-1 mice; CR 0.5,72 RLU/20 ul lysate
same,Luciferase RLU/20 ul lysate liver,CD-1 mice; CR 0.5,86 RLU/20 ul lysate
same,Luciferase RLU/20 ul lysate lung,CD-1 mice; CR 0.5,82 RLU/20 ul lysate
same,Luciferase RLU/20 ul lysate spleen,CD-1 mice; CR 0.5,80 RLU/20 ul lysate
same,Luciferase RLU/20 ul lysate heart,CD-1 mice; CR 1,73 RLU/20 ul lysate
same,Luciferase RLU/20 ul lysate kidney,CD-1 mice; CR 1,71 RLU/20 ul lysate
same,Luciferase RLU/20 ul lysate liver,CD-1 mice; CR 1,219 RLU/20 ul lysate
same,Luciferase RLU/20 ul lysate lung,CD-1 mice; CR 1,95 RLU/20 ul lysate
same,Luciferase RLU/20 ul lysate spleen,CD-1 mice; CR 1,168 RLU/20 ul lysate
same,Luciferase RLU/20 ul lysate heart,CD-1 mice; CR 4,379 RLU/20 ul lysate
same,Luciferase RLU/20 ul lysate kidney,CD-1 mice; CR 4,528 RLU/20 ul lysate
same,Luciferase RLU/20 ul lysate liver,CD-1 mice; CR 4,"3,817 RLU/20 ul lysate"
same,Luciferase RLU/20 ul lysate lung,CD-1 mice; CR 4,"19,717 RLU/20 ul lysate"
same,Luciferase RLU/20 ul lysate spleen,CD-1 mice; CR 4,"4,778 RLU/20 ul lysate"
same,Luciferase RLU/20 ul lysate heart,CD-1 mice; CR 10,103 RLU/20 ul lysate
same,Luciferase RLU/20 ul lysate kidney,CD-1 mice; CR 10,281 RLU/20 ul lysate
same,Luciferase RLU/20 ul lysate liver,CD-1 mice; CR 10,"1,283 RLU/20 ul lysate"
same,Luciferase RLU/20 ul lysate lung,CD-1 mice; CR 10,"4,470 RLU/20 ul lysate"
same,Luciferase RLU/20 ul lysate spleen,CD-1 mice; CR 10,"4,108 RLU/20 ul lysate"
same,Luciferase RLU/20 ul lysate heart,CD-1 mice; CR 20,75 RLU/20 ul lysate
same,Luciferase RLU/20 ul lysate kidney,CD-1 mice; CR 20,70 RLU/20 ul lysate
same,Luciferase RLU/20 ul lysate liver,CD-1 mice; CR 20,243 RLU/20 ul lysate
same,Luciferase RLU/20 ul lysate lung,CD-1 mice; CR 20,84 RLU/20 ul lysate
same,Luciferase RLU/20 ul lysate spleen,CD-1 mice; CR 20,69 RLU/20 ul lysate
same,expression in vivo by core complexes,"CD-1 mice; mouse, in vivo",exhibit expression in vivo
CCNCCCNCCCCNCCCNCC [CGP 41660A],Particle Size,[1]; charge ratio (+/−) 0.5,136 nm
same,Particle Size,[1]; charge ratio (+/−) 1.0,62.6 nm
same,Particle Size,[1]; charge ratio (+/−) 1.5,93.4 nm
same,Particle Size,[1]; charge ratio (+/−) 2.0,573.5 nm
same,Particle Size,[1]; charge ratio (+/−) 3.0,987.4 nm
same,Particle Size,[1]; charge ratio (+/−) 4.0,4959 nm
same,Zeta Potential,[2]; charge ratio (+/−) 0.5,−40.9
same,Zeta Potential,[2]; charge ratio (+/−) 1.0,−8.72
same,Zeta Potential,[2]; charge ratio (+/−) 1.5,−7.67
same,Zeta Potential,[2]; charge ratio (+/−) 2.0,−7.08
same,Zeta Potential,[2]; charge ratio (+/−) 3.0,−5.03
same,Zeta Potential,[2]; charge ratio (+/−) 4.0,−4.87
